How the values were obtained:
Assay in all cases: Enzymatic activity of PI3K isoforms, TR-FRET assay (PIP3 formation)
Assay type in all cases: biochemical
PI3Kδ = PI3Kδ (Homo sapiens (Human), UniProt O00329); settings: bound given in nM
How it was run: (§1)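 Heterodimeric recombinant class I PI3K; PIP3 product displaces labeled PIP3 from GRP-1 PH domain, lowering TR-FRET. Reaction 30 min at 25° C, stopped with 10 mM EDTA, 10 nM labeled-PIP3, 35 nM Eu-GRP-1. Read Ex 340 nm, Em 615/665 nm; IC50 in nM.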

PI3Kβ = PI3Kβ (Homo sapiens (Human), UniProt P42338)
PI3Kβ, sequence (P42338 whole entry, the tested form may be a part, canonical isoform): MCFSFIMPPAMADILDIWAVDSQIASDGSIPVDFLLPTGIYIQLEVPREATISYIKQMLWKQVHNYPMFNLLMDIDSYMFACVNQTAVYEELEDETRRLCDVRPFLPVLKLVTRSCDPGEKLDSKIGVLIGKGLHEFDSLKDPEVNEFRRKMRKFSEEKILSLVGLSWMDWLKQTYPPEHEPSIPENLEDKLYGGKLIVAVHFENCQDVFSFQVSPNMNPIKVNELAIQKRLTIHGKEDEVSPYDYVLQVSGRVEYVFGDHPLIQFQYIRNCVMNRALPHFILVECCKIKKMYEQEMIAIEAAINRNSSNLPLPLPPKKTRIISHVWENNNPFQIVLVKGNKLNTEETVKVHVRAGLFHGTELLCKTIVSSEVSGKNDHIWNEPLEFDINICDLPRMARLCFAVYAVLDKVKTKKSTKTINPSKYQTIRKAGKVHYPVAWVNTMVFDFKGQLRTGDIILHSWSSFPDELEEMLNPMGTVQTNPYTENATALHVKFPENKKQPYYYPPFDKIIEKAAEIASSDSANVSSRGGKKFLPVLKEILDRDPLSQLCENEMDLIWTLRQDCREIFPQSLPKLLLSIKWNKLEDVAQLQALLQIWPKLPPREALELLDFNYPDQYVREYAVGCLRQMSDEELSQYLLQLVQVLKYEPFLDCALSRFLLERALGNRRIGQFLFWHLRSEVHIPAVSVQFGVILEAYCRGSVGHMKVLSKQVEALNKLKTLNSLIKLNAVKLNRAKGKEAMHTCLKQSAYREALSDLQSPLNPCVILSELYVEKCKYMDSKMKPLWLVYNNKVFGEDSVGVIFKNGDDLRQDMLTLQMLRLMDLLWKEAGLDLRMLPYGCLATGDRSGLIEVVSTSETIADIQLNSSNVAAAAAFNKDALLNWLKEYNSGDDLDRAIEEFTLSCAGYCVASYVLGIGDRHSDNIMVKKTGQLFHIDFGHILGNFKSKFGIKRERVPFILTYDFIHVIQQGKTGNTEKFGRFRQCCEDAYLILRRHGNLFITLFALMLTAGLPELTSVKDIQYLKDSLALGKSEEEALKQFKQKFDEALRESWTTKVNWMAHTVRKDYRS
PI3Kβ, sequence (P27986 whole entry partner, the tested form may be a part, canonical isoform): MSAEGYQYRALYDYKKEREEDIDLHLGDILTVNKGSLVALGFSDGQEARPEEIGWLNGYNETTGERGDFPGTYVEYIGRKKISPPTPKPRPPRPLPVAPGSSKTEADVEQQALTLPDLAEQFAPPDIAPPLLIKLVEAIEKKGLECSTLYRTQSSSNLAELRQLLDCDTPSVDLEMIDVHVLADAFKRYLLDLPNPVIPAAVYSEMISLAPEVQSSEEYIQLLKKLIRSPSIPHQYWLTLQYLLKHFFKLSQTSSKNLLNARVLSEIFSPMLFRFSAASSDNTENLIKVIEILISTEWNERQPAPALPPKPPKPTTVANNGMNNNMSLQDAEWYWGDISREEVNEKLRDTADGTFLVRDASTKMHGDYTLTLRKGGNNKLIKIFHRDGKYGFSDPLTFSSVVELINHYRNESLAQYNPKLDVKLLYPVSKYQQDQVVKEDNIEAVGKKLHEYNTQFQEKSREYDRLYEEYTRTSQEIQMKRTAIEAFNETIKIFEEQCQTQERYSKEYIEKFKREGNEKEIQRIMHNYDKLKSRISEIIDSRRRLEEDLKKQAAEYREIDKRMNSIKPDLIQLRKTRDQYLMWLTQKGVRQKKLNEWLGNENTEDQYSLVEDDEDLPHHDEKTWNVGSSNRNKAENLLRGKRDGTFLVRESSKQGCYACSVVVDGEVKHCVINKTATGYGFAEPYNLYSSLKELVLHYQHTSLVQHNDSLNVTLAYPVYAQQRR
Method: (§2) Enzymatic activity of the class I PI3K isoforms was measured using a time-resolved fluorescence resonance energy transfer (TR-FRET) assay that monitors formation of the product 3,4,5-inositol triphosphate molecule (PIP3), as it competes with fluorescently labeled PIP3 for binding to the GRP-1 pleckstrin homology domain protein. An increase in […] product results in a decrease in TR-FRET signal as the labeled fluorophore is displaced from the GRP-1 protein binding site.
(§3) Class I PI3K isoforms were expressed and purified as heterodimeric recombinant proteins. All assay reagents and buffers for the TR-FRET assay were purchased from Millipore.
(§4) IC50 are reported in units of nM.

PI3Kα = PI3Kα (Homo sapiens (Human), UniProt P42336); settings: bound given in uM
PI3Kα, sequence (P42336 whole entry): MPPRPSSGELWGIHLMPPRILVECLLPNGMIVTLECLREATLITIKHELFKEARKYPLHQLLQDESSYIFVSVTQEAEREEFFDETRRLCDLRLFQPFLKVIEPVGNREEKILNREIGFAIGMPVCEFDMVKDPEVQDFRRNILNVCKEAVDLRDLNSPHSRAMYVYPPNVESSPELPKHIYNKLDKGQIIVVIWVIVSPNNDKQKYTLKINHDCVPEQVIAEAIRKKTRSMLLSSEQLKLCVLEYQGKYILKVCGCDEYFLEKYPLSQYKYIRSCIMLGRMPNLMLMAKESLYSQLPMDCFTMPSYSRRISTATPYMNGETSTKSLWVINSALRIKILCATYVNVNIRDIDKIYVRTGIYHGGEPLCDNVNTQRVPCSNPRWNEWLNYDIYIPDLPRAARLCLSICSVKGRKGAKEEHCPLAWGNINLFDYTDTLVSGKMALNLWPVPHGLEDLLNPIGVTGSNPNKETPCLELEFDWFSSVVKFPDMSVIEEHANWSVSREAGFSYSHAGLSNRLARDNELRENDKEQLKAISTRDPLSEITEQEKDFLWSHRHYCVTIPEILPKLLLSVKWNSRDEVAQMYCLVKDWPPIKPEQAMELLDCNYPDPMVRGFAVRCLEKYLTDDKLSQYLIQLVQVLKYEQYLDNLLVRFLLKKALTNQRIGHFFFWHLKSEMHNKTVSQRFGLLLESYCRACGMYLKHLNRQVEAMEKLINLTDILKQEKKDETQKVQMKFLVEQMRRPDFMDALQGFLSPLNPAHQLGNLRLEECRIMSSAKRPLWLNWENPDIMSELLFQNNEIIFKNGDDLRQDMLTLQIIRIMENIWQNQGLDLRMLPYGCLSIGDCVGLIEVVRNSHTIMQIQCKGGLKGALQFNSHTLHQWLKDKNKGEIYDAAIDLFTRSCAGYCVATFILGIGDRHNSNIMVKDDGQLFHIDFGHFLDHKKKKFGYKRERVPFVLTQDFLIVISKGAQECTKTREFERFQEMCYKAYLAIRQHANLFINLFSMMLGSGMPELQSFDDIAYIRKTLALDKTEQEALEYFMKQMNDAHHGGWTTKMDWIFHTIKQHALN
PI3Kα, sequence (P27986 whole entry partner): as the sequence (P27986 whole entry partner, the tested form may be a part, canonical isoform) above
How it was run: as §1

PI3Kγ = PI3Kγ (Homo sapiens (Human), UniProt P48736); settings: bound given in uM
Method: as §2, §3, §4

PI3Kδ, sequence (O00329 whole entry, the tested form may be a part): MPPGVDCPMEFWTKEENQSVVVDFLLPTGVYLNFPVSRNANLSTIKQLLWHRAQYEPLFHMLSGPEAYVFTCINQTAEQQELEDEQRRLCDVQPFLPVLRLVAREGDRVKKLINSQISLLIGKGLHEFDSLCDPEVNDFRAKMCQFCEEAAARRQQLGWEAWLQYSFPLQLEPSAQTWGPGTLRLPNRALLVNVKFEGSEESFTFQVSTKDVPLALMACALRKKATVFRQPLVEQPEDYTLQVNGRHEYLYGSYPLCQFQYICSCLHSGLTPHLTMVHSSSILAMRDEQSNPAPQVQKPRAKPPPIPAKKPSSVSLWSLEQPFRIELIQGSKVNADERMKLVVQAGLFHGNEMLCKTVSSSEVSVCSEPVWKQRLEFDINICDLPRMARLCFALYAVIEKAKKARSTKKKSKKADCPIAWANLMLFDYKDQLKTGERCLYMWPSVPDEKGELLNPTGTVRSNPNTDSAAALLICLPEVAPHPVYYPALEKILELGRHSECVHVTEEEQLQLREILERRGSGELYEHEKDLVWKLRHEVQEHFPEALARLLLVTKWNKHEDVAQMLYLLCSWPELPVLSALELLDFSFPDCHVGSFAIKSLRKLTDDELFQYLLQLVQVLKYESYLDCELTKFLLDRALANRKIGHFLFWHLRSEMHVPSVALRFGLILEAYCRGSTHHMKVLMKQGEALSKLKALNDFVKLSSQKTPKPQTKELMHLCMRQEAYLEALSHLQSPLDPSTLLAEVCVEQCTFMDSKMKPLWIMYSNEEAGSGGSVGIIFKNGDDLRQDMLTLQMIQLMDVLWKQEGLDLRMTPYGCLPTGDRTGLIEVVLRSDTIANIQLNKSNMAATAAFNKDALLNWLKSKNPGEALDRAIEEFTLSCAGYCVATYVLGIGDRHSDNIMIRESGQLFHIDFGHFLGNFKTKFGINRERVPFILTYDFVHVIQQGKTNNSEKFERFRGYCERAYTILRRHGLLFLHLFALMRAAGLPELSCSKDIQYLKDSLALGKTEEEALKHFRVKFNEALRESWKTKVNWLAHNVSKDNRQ
PI3Kδ, sequence (P27986 whole entry partner, the tested form may be a part): as the sequence (P27986 whole entry partner, the tested form may be a part, canonical isoform) above

Structure (SMILES)	IC50 (PI3Kδ) [nM]	IC50 (PI3Kβ; bound given in nM) [nM]	IC50 (PI3Kβ; bound given in uM) [nM]	IC50 (PI3Kα) [µM]	IC50 (PI3Kγ) [µM]
Cc1cccc2nc([C@H](C)Nc3ncnc(N)c3C#Cc3ccccn3)n(-c3ccccc3)c(=O)c12 [Compound 30a, (S)-2-(1-(6-amino-5-(pyridin-2-ylethynyl)pyrimidin-4-ylamino)ethyl)-5-methyl-3-phenylquinazolin-4(3H)-one]	< 100	< 100			
C[C@H](Nc1ncnc(N)c1C#Cc1ccccc1)c1nc2cccc(S(C)(=O)=O)c2c(=O)n1-c1ccccc1 [Compound 112a, (S)-2-(1-((6-amino-5-(phenylethynyl)pyrimidin-4-yl)amino)ethyl)-5-(methylsulfonyl)-3-phenylquinazolin-4(3H)-one]	< 100		> 1000		
C[C@H](Nc1ncnc(N)c1C#Cc1ccccn1)c1nc2cccc(Cl)c2c(=O)n1-c1ccccc1 [Compound 50a, (S)-2-(1-(6-amino-5-(pyridin-2-ylethynyl)pyrimidin-4-ylamino)ethyl)-5-chloro-3-phenylquinazolin-4(3H)-one]	< 100	< 100			
C[C@H](Nc1ncnc(N)c1C#Cc1cc(C(N)=O)ccn1)c1nc2cccc(Cl)c2c(=O)n1-c1ccccc1 [Compound 156a, (S)-2-((4-amino-6-((1-(5-chloro-4-oxo-3-phenyl-3,4-dihydroquinazolin-2-yl)ethyl)amino)pyrimidin-5-yl)ethynyl)isonicotinamide]	< 100	< 100			
C[C@H](Nc1ncnc(N)c1C#Cc1cnccn1)c1nc2cccc(Cl)c2c(=O)n1-c1cccnc1 [Compound 118a, (S)-2-(1-((6-amino-5-(pyrazin-2-ylethynyl)pyrimidin-4-yl)amino)ethyl)-5-chloro-3-(pyridin-3-yl)quinazolin-4(3H)-one]	< 100			> 1	> 1
CC(=O)c1cccnc1C#Cc1c(N)ncnc1N[C@@H](C)c1nc2cccc(Cl)c2c(=O)n1-c1ccccc1 [Compound 152a, (S)-2-(1-((5-((3-acetylpyridin-2-yl)ethynyl)-6-aminopyrimidin-4-yl)amino)ethyl)-5-chloro-3-phenylquinazolin-4(3H)-one]	< 100			> 1	> 1
Cc1cccc2nc([C@H](C)Nc3ncnc(N)c3C#Cc3cnccn3)n(-c3cccnc3)c(=O)c12 [Compound 119a, (S)-2-(1-((6-amino-5-(pyrazin-2-ylethynyl)pyrimidin-4-yl)amino)ethyl)-5-methyl-3-(pyridin-3-yl)quinazolin-4(3H)-one]	< 100			> 1	> 1
Cc1ccc(F)c2nc([C@H](C)Nc3ncnc(N)c3C#Cc3cnccn3)n(-c3cccc(C#N)c3)c(=O)c12 [Compound 73a, (S)-3-(2-(1-((6-amino-5-(pyrazin-2-ylethynyl)pyrimidin-4-yl)amino)ethyl)-8-fluoro-5-methyl-4-oxoquinazolin-3(4H)-yl)benzonitrile]	< 100			> 1	> 1
C[C@H](Nc1ncnc(N)c1C#Cc1cnccn1)c1nc2ccc(F)cc2c(=O)n1-c1ccccc1 [Compound 91a, (S)-2-(1-((6-amino-5-(pyrazin-2-ylethynyl)pyrimidin-4-yl)amino)ethyl)-6-fluoro-3-phenylquinazolin-4(3H)-one]	< 100			> 1	> 1
C[C@H](Nc1ncnc(N)c1C#Cc1ccc(F)cn1)c1nc2c(Cl)ccc(Cl)c2c(=O)n1-c1ccccc1 [Compound 11a, (S)-2-(1-(6-amino-5-((5-fluoropyridin-2-yl)ethynyl)pyrimidin-4-ylamino)ethyl)-5,8-dichloro-3-phenylquinazolin-4(3H)-one]	< 100			> 1	> 1
C[C@H](Nc1ncnc(N)c1C#Cc1cnccn1)c1nc2cccc(F)c2c(=O)n1-c1ccccc1 [Compound 86a, (S)-2-(1-((6-amino-5-(pyrazin-2-ylethynyl)pyrimidin-4-yl)amino)ethyl)-5-fluoro-3-phenylquinazolin-4(3H)-one]	< 100			> 1	> 1
